These are literature values, as cited in patent publication EP1586313A1, “Pharmaceutical composition with metoclopramide and process for its preparation” (The Jordanian Pharmaceutical Manufacturing Co. Ltd., priority 2004, dated 2005).

The conditions of the data set: reportedly.

Turning to `CCN(CC)CCNC(=O)c1cc(Cl)c(N)cc1OC.Cl.O` [metoclopramide, 4-amino-5-chloro-N-(2-diethylaminoethyl)-2-methoxybenzamide hydrochloride monohydrate], the “peak plasma metoclopramide concentrations associated with metoclopramide induced akathisia” value is “greater than 120 ng/ml”.
